From article PMC5923274 (Drug Design, Development and Therapy, 2018)
Where two headings read alike, the source gives them in different places.

Assays:
recombinant Nampt [1] = molecular target: T1, recombinant Nampt (Homo sapiens, UniProt P43490); settings: cited from earlier work
184A1 = test: MTT assay, 184A1 cells, 72 h; format: cell-based; settings: read-out: IC50 (nM) ± SD (n) 184A1, 184A1 noncancerous Nampt-dependent human breast epithelium cells, n=4
recombinant Nampt [2] = molecular target: T1, recombinant Nampt; test: Recombinant Nampt inhibition assay; format: biochemical; settings: read-out: IC50, inhibition of recombinant Nampt activity; colorimetric assay
[3] = continuous intravenous infusion for 4 consecutive days, patients; cited from earlier work

T1 sequence (P43490 whole entry): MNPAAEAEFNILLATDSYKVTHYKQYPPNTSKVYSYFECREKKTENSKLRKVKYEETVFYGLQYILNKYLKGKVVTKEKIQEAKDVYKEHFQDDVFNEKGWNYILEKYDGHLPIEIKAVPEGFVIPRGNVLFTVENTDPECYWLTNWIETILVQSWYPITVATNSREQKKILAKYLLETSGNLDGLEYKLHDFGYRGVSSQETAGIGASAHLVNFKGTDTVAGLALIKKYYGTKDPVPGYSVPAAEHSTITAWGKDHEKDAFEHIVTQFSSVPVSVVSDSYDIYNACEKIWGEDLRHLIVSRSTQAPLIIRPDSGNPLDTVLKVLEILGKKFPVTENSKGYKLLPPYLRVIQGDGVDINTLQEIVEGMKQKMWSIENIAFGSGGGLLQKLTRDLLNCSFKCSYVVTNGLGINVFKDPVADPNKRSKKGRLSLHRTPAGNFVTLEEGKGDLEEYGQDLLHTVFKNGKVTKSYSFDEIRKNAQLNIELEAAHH

## 1-(4′-(trans-3″-(3‴-pyridyl)acrylamido)butyl)-1,7-dicarbadodecaborane [MC4-PPEA]
Recombinant Nampt [1]; read-out: IC50, inhibition of Nampt, previously reported
  IC50: 4.2 nM
Recombinant Nampt [1]; relative to FK866
  fold higher Nampt inhibitory activity than FK866: ~ 100 fold

## 1-(hydroxymethyl)-7-(4′-(trans-3″-(3′″-pyridyl)acrylamido)butyl)-1,7-dicarbadodecaborane [hm-MC4-PPEA]
184A1
  IC50: 1.9 ± 0.4 nM
Recombinant Nampt [2]
  IC50: 6.8 nM

## O=C(/C=C/c1cccnc1)NCCCCC1CCN(C(=O)c2ccccc2)CC1 [FK866]
[3]
  dose-limiting toxicity: thrombocytopenia
